Assay results reported in patent US11851428B2, “Activator of TREK (TWIK RElated K+channels) channels” (ONO PHARMACEUTICAL CO., LTD., priority 2016, dated 2023).

These compounds were tested against T1, human TREK-1 (Homo sapiens, UniProt O95069) (assay: thallium flux assay (TREK1 activation normalized to BL-1249)). Conditions: concentration of Example compound 10 μM; normalized to 10 μM BL-1249; CHO-K1 cells stably expressing human TREK-1.
T1 construct: expressed in transfected cells
T1 sequence (O95069 1-426): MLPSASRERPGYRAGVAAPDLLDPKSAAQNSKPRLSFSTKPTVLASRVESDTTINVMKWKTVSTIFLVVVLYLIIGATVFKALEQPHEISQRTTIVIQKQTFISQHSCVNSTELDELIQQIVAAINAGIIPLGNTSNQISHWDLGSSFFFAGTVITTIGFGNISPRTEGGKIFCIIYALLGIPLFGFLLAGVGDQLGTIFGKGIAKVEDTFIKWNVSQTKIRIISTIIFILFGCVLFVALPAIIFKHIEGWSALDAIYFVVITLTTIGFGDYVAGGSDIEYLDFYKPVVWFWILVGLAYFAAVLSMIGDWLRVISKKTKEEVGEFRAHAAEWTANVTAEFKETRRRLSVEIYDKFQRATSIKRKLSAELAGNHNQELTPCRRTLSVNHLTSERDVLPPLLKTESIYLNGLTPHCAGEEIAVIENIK
Format: cell-based
Procedure: The term “thallium flux assay” herein refers to a fluorescence-based assay used to monitor the activity of TREK channels. Thallium is a congener of potassium that readily fluxes through the pore of TREK channels. Thallium flux is measured using a commercially available, thallium-sensitive fluorescent dye called Thallos. The detail method is described below.
Method 1 (Thallium Flux Assay);
CHO-K1 cells stably expressing human TREK-1 or HEK293 cells stably expressing human TREK-2 are plated in 384-well plates, cultured overnight, loaded with Thallos dye the following day, treated with test compounds for 10 min, and then treated with thallium stimulus buffer to initiate thallium flux. The change in fluorescence at 25 seconds after thallium addition is normalized to baseline fluorescence (fluorescent intensity at 25 sec after Tl^+ addition)/(average of fluorescent intensity at pre-read).
`O=C(NCc1ccc(OC(F)(F)F)c(F)c1)c1ccc2ncnn2c1` [Example 1-23] was tested, and the “TREK1 activation RBL-1249 (%)” value was 63%. For `O=C(NCc1ccc(Br)cc1Cl)c1ccc2ncnn2c1` [Example 1-28], the “TREK1 activation RBL-1249 (%)” value was 99%.

Same assay, conditions: concentration of Example compound 10 μM; normalized to 10 μM BL-1249; CHO-K1 cells stably expressing human TREK-1; read-out: TREK1 activation RBL-1249 (%)
Compound `O=C(NCc1ccc(OC(F)(F)F)cc1)c1ccc(-n2cncn2)cc1` [4-(1H-1,2,4-triazol-1-yl)-N-[4-(trifluoromethoxy)benzyl]benzamide] has an activation at 10 µM of 63%. With `Cc1cc(OC(F)(F)F)ccc1CNC(=O)c1ccc2ncnn2c1` [Example 1, N-[2-Methyl-4-(trifluoromethoxy)benzyl]-[1,2,4]triazolo[1,5-a]pyridine-6-carboxamide] the activation at 10 µM was 88%. Compound `O=C(NCc1ccc(OC(F)(F)F)cc1)c1ccn2cnnc2c1` [Example 1-3, N-[4-(trifluoromethoxy)benzyl][1,2,4]triazolo(4,3-a]pyridine-7-carboxamide] has an activation at 10 µM of 28%. `O=C(NCc1ccc(Cl)cc1Cl)c1ccc2ncnn2c1` [Example 1-5, N-(2,4-dichlorobenzyl)[1,2,4]triazolo[1,5-a]pyridine-6-carboxamide] was tested, and the activation at 10 µM was 44%. `O=C(NCc1ccc(Cl)cc1Cl)c1ccc2[nH]ncc2c1` [Example 1-6, N-(2,4-dichlorobenzyl)-1H-indazole-5-carboxamide] showed an activation at 10 µM of 26%. For `O=C(NCc1ccc(OC(F)(F)F)cc1F)c1ccc(F)nc1` [Example 1-13, 6-fluoro-N-[2-fluoro-4-(trifluoromethoxy)benzyl]nicotinamide], the activation at 10 µM was 65%. In the case of `O=C(NCc1ccc(C(F)(F)F)cc1Cl)c1cccc2ncnn12` [Example 1-27, N-[2-chloro-4-(trifluoromethyl)benzyl][1,2,4]triazolo[1,5-a]pyridine-5-carboxamide], the activation at 10 µM is reported as 91%. `O=C(NCc1ccc(OC(F)(F)F)cc1F)c1ccn2cnnc2c1` [Example 1-29, N-[2-fluoro-4-(trifluoromethoxy)benzyl][1,2,4]triazolo[4,3-a]pyridine-7-carboxamide] gave an activation at 10 µM of 80%. `O=C(NCc1ccc(C(F)(F)F)cc1Cl)c1ccn2cnnc2c1` [Example 1-31, N-[2-chloro-4-(trifluoromethyl)benzyl][1,2,4]triazolo[4,3-a]pyridine-7-carboxamide] showed an activation at 10 µM of 90%. Compound `O=C(NCc1ccc(OC(F)(F)F)cc1)c1cc2cccnc2s1` [Example 1-33, N-(4-(trifluoromethoxy)benzyl]thieno[2,3-b]pyridine-2-carboxamide] has an activation at 10 µM of 26%. Compound `O=C(NCc1ccc(OC(F)(F)F)cc1)c1cnc(C(F)(F)F)nc1` [Example 1-34, N-[4-(trifluoromethoxy)benzyl]-2-(trifluoromethyl)-5-pyrimidinecarboxamide] has an activation at 10 µM of 33%. `O=C(NCc1ccc(OC(F)(F)F)cc1)c1ccc2nccnc2c1` [Example 1-36, N-[4-(trifluoromethoxy)benzyl]-6-quinoxalinecarboxamide] was tested, and the activation at 10 µM was 26%. `Cc1cc(OC(F)(F)F)ccc1CNC(=O)c1ccn2cnnc2c1` [Example 1-45, N-[2-methyl-4-(trifluoromethoxy)benzyl][1,2,4]triazolo[4,3-a]pyridine-7-carboxamide] showed an activation at 10 µM of 85%. With `Cc1cc(OC(F)(F)F)ccc1CNC(=O)c1cc2ncccn2n1` [Example 1-46, N-[2-methyl-4-(trifluoromethoxy)benzyl]pyrazolo[1,5-a]pyrimidine-2-carboxamide] the activation at 10 µM was 67%. Compound `O=C(NCc1ccc(C(F)(F)F)cc1Cl)c1cc2ncccn2n1` [Example 1-47, N-(2-chloro-4-(trifluoromethyl)benzyl]pyrazolo[1,5-a]pyrimidine-2-carboxamide] has an activation at 10 µM of 63%. Work on `O=C(NCc1ccc(OC(F)(F)F)cc1F)c1cc2ncccn2n1` [Example 1-50, N-[2-fluoro-4-(trifluoromethoxy)benzyl]pyrazolo[1,5-a]pyrimidine-2-carboxamide] yielded an activation at 10 µM of 66%. `COc1cc(OC(F)(F)F)ccc1CNC(=O)c1cc2ncccn2n1` [Example 1-51, N-[2-methoxy-4-(trifluoromethoxy)benzyl]pyrazolo[1,5-a]pyrimidine-2-carboxamide] showed an activation at 10 µM of 65%. `O=C(NCc1ccc(OC(F)(F)F)c(F)c1)c1cc2ncccn2n1` [Example 1-52, N-[3-fluoro-4-(trifluoromethoxy)benzyl]pyrazolo[1,5-a]pyrimidine-2-carboxamide] gave an activation at 10 µM of 75%. `O=C(NCc1ccc(OC(F)(F)F)cc1)c1ccc2[nH]ncc2c1` [Example 1-71, N-[4-(trifluoromethoxy)benzyl]-1H-indazole-5-carboxamide] showed an activation at 10 µM of 19%. Work on `O=C(NCc1ccc(Br)cc1Cl)c1ccc2[nH]nnc2c1` [Example 1-76, N-[(4-bromo-2-chlorophenyl)methyl]-1H-benzotriazole-5-carboxamide] yielded an activation at 10 µM of 101%. `O=C(NCc1ccc(OC(F)(F)F)cc1F)c1cnc2ccnn2c1` [Example 1-81, N-[[2-fluoro-4-(trifluoromethoxy)phenyl]methyl]pyrazolo[1,5-a]pyrimidine-6-carboxamide] gave an activation at 10 µM of 78%. Compound `O=C(NCc1ccc(Br)cc1Cl)c1ccc2snnc2c1` [Example 1-86, N-[(4-bromo-2-chlorophenyl)methyl]-1,2,3-benzothiadiazole-5-carboxamide] has an activation at 10 µM of 75%. `Cc1cc(OC(F)(F)F)ccc1CNC(=O)c1ccn2ccnc2c1` [Example 1-87, N-[[2-methyl-4-(trifluoromethoxy)phenyl]methyl]imidazo[1,2-a]pyridine-7-carboxamide] showed an activation at 10 µM of 72%. `N#Cc1cc(OC(F)(F)F)ccc1CNC(=O)c1ccc2ncnn2c1` [Example 1-89, N-[[2-cyano-4-(trifluoromethoxy)phenyl]methyl]-[1,2,4]triazolo[1,5-a]pyridine-6-carboxamide] was tested, and the activation at 10 µM was 70%. `O=C(NCc1ccc(OC(F)F)cc1Cl)c1ccc2ncnn2c1` [Example 1-92, N-[[2-chloro-4-(difluoromethoxy)phenyl]methyl]-[1,2,4]triazolo[1,5-a]pyridine-6-carboxamide] gave an activation at 10 µM of 70%. With `COc1cc(OC(F)(F)F)ccc1CNC(=O)c1ccc(-n2cncn2)cc1` [Example 2-1, N-[2-methoxy-4-(trifluoromethoxy)benzyl]-4-(1H-1,2,4-triazol-1-yl)benzamide] the activation at 10 µM was 54%. In the case of `O=C(NCc1ccc(S(F)(F)(F)(F)F)cc1)c1ccc(-n2cncn2)cc1` [Example 2-2, N-[4-(pentafluoro-λ^6-sulfanyl)benzyl]-4-(1H-1,2,4-triazol-1-yl)benzamide], the activation at 10 µM is reported as 41%. `O=C(NCc1ccc(OC(F)(F)F)c(F)c1)c1ccc(-n2cncn2)cc1` [Example 2-3, N-[3-fluoro-4-(trifluoromethoxy)benzyl]-4-(1H-1,2,4-triazol-1-yl)benzamide] showed an activation at 10 µM of 72%.

Same assay, conditions: concentration of Example compound 30 μM; normalized to 10 μM BL-1249; CHO-K1 cells stably expressing human TREK-1
`Cc1cc(OC(F)(F)F)ccc1CNC(=O)c1cc(F)nc(F)c1` [Example 1-55, 2-6-difluoro-N-[2-methyl-4-(trifluorothoxy)benzyl]isonicotinamide] was tested, and the “TREK1 activation RBL-1249 (%)” value was 38%.

Same assay, conditions: concentration of Example compound 30 μM; normalized to 10 μM BL-1249; CHO-K1 cells stably expressing human TREK-1; read-out: TREK1 activation RBL-1249 (%)
Work on `O=C(NCc1ccc(OC(F)(F)F)cc1F)c1ccnc(F)c1` [Example 1-12, 2-fluoro-N-[2-fluoro-4-(trifluoromethoxy)benzyl]isonicotinamide] yielded an activation at 30 µM of 63%. In the case of `O=C(NCc1ccc(OC(F)(F)F)cc1)c1ccn2ncnc2c1` [Example 1-21, N-[4-(trifluoromethoxy)benzyl][1,2,4]triazolo[1,5-a]pyridine-7-carboxamide], the activation at 30 µM is reported as 73%. For `COc1cc(OC(F)(F)F)ccc1CNC(=O)c1ccc2ncnn2c1` [Example 1-26, N-[2-methoxy-4-(trifluoromethoxy)benzyl][1,2,4]triazolo[1,5-a]pyridine-6-carboxamide], the activation at 30 µM was 74%. `COc1cc(OC(F)(F)F)ccc1CNC(=O)c1ccn2cnnc2c1` [Example 1-30, N-[2-methoxy-4-(trifluoromethoxy)benzyl][1,2,4]triazolo[4,3-a]pyridine-7-carboxamide] gave an activation at 30 µM of 76%. `O=C(NCc1ccc(OC(F)(F)F)cc1)c1cn[nH]c(=O)c1` [Example 1-42, 6-oxo-N-[4-(trifluoromethoxy)benzyl]-1,6-dihydro-4-pyridazinecarboxamide] showed an activation at 30 µM of 41%. `O=C(NCc1ccc(OC(F)(F)F)cc1)c1nc2ncccn2n1` [Example 1-44, N-[4-(trifluoromethoxy)benzyl][1,2,4]triazolo[1,5-a]pyrimidine-2-carboxamide] gave an activation at 30 µM of 25%. In the case of `Cc1cc(OC(F)(F)F)ccc1CNC(=O)c1nc2ncccn2n1` [Example 1-61, N-[2-methyl-4-(trifluoromethoxy)benzyl][1,2,4]triazolo[1,5-a]pyrimidine-2-carboxamide], the activation at 30 µM is reported as 48%. `O=C(NCc1ccc(OC(F)(F)F)cc1)c1ccc2[nH]cnc2c1` [Example 1-72, N-[4-(trifluoromethoxy)benzyl]-1H-benzimidazole-5-carboxamide] was tested, and the activation at 30 µM was 60%.
